Here are results for 62 compounds from a melting point compilation (Tetko et al.; mined from patent text by program, amines drawn as free bases though some values may be those of a salt).

For orientation: melting point means the temperature, or range, at which the solid turns liquid.

Some results are limits rather than exact numbers.

On to `CC(C)(C)OC(=O)NC1CCN(c2nc3c(cc2F)c(=O)n(N)c(=O)n3C2CC2)C1` (configuration not stated), for which the melting point is 108 to 110 °C.
Regarding `CC(C)C1CCC2(C(=O)O)CCC3(C)C(CCC4C5(C)CCC(O)C(C)(C)C5CCC43C)C12` (configuration not stated), the melting point was in the range of 287 to 289 °C.
Turning to `O=C(OCC1OC(OCc2ccccc2)C(OCc2ccccc2)C(OCc2ccccc2)C1OCc1ccccc1)c1ncc[nH]1` (configuration not stated), the melting point was in the range of 105 to 108 °C.
For `O=C(CC(=O)C(F)(F)F)c1ccc(-n2cccn2)cc1` the value was 96 °C.
Take `O=c1cc(-c2cccc(Cl)c2)c2cc(Br)ccc2[nH]1`: the melting point worked out at 105 °C.
`Cc1cnc2c(=O)[nH]c3ccccc3n12` returned a melting point above 300 °C.
For `COc1cccc2c1[C@@H](Oc1cc(C(=O)N(C)C)cn3c(C)c(C)nc13)[C@H](O)C2` (relative stereo) the value was 129 °C; for `CCOC(=O)C(CC=C1CCN(c2ccccc2)C1=O)Nc1cc(Cl)ccc1I` (configuration not stated), 132 to 134 °C; for `CCOC(=O)C1=C(NC(=O)Nc2cc(C(=O)OC(C)C)c(F)cc2Br)CCC1`, 166 to 168 °C.
The compound `Cc1ccc(C(=C/C=C/C(=O)NCCCCc2cccnc2)c2ccc(C)cc2)cc1` displayed a melting point of 144 to 146 °C.
`c1ccc(-c2nnc(Nc3ccc4c(c3)ncn4-c3ccccc3)c3ccccc23)cc1`: the melting point was 227 to 229 °C.
In turn, `O=c1[nH]c2ccc(F)cc2c(=O)o1` registered a melting point of 240 °C.
`COC(=O)c1csc2c(=O)cc(C3CCCCC3)oc12`: the melting point lay in the range of 114 to 119 °C.
Then `Cc1cc(CBr)nc2ccccc12`, with 92 °C; and `CC(C)(C)C(=O)COc1nn(CC#N)c(-c2ccc(S(C)(=O)=O)cc2)c1-c1ccc(F)cc1`, with 156 to 159 °C.
Compound `Clc1ccc2c(NCC=CCNc3ccnc4cc(Cl)ccc34)ccnc2c1` had a melting point above 250 °C.
`C#CCOc1nsc(SC(F)F)c1C#N` returned a melting point of 83 to 84 °C.
`Cc1nc(Nc2ccc3[nH]ccc3c2)c2sc(-c3ccccc3)cc2n1` returned a melting point of 205 to 210 °C.
For `Cn1nc(-c2ccnc(N[C@H]3CC[C@H](O)CC3)n2)c2ccccc21` the value was 180 to 183 °C.
Regarding `CC(C)(C)OC(=O)N[C@@H](Cc1ccnc(C#N)c1)C(=O)OCc1ccccc1`, the melting point is 74 to 76 °C.
`CC1SC(c2cccnc2)NC1=O` (configuration not stated) gave a melting point of 110 °C.
For `CC(C)(Oc1ccc(NC(=O)Nc2cc(Cl)cc(Cl)c2)cc1)C(=O)O` the value was 182 to 184 °C.
Then `CCCOc1ccc(-c2ccc3c(c2)C=C(C(=O)Nc2ccc(CN(C)C4CCOCC4)cc2)CCS3(=O)=O)cc1OCCC`, with 206 to 208 °C.
The compound `COc1ccccc1NS(=O)(=O)c1cccc(C=CC(=O)NO)c1` returned a melting point of 181 °C.
The compound `CCOC(=O)c1c(-c2ccc(F)cc2)c2n(c1C(C)C)CCCC2` had a melting point of 85.5 to 86.5 °C.
In turn, `Nc1nnc(N2CCN(C(=O)OCc3ccccc3)CC2)[nH]1` displayed a melting point of 157 to 159 °C.
For the compound `CCn1cc(C(=O)O)c(=O)c2cn(C)nc21`, the melting point was in the range of 273 to 275 °C.
The compound `C=CC(=O)OCCOc1ccc(-c2cccc(F)c2F)cc1` displayed a melting point of 47.4 to 50.1 °C.
In turn, `CCCCCc1ccc(C(=O)NC2N=C(c3ccccc3)c3ccccc3NC2=O)cc1` (racemic) showed a melting point of 203 to 205 °C.
Then `CCOC(=O)c1cc2c(s1)-c1c(SC)sc(C(=O)OCC)c1CC2`, with 107 to 108 °C; and `CN1C(=O)CC[C@]2(C)c3ccc(-c4cccc([N+](=O)[O-])c4)cc3CC[C@@H]12`, with 181 to 183 °C.
Consider `CCN1C(=O)N=NC1c1cccc(F)c1` (configuration not stated), for which the melting point fell in the range of 135 to 140 °C.
For `COP(=O)(CN[C@@H](Cc1ccc(-c2ccccc2)cc1)C(=O)NCCC(=O)O)OC` the value was 122 to 123 °C.
For `CCCCN=C(O)c1c(Sc2ccccc2)c(Sc2ccccc2)c(Sc2ccccc2)c(Sc2ccccc2)c1C(=O)O` the value was 159 to 160 °C.
With `O=[N+]([O-])c1cccc(-c2nnc(Cl)s2)c1`, the melting point fell in the range of 162 to 165 °C.
In the case of `Cc1c(Cc2ccccc2)c(=O)n(C2CCCC2)c2nc(Nc3ccc(N4CCNCC4)cc3)ncc12`, the melting point is 114 °C.
For `CC1(C)OC(=O)Nc2ccc(Br)cc21` the value was 199 to 200 °C.
In turn, `COC(=O)c1ccccc1-n1c(CCl)nc2ccc(F)cc2c1=O` gave a melting point of 213 to 215 °C.
Then `C1=CCC2=C(C1)CCc1ccccc1C2`, with 42.5 to 43 °C.
For `C[C@@H]1CN(c2ncc(Cl)cc2Cl)CCN1c1nc2c(Br)cc(C(F)(F)F)cc2[nH]1` the value was 135 to 137 °C; for `NS(=O)(=O)c1ccc(-c2cc(-c3nc(-c4ccc(C(F)(F)F)nc4)cc(C(F)(F)F)n3)ccn2)s1`, 262 °C.
`Cc1c(SCCCSCc2ccncc2)ccnc1CNc1cnc2ccccc2c1` displayed a melting point of 116 to 119 °C.
The compound `CN(C)Cc1cc(C(=O)c2cccs2)cc(C2CCCCC2)c1O` came in with a melting point of 105 to 106 °C.
The compound `COc1ccc(N2N=C3c4ccccc4SCCC3CC2=O)cc1` (configuration not stated) had a melting point of 143 to 145 °C.
For `CS(=O)(=O)c1ccc(-n2cc(CC(=O)O)nc2-c2ccc(Cl)cc2)cc1` the value was 263 to 264 °C; for `COC(=O)c1ccc(C(=O)OC)c(Nc2ccccc2)c1`, 85 to 87 °C; for `CSC(=Cc1ccccc1N(Cc1ccccc1)c1c(Cl)cccc1Cl)S(C)=O` (configuration not stated), 194 to 196 °C.
Turning to `Cc1ccc(-c2cc3ccc4ccccc4c3o2)cc1`, the melting point lay in the range of 97 to 100 °C.
`Cc1c(N2CCC(N(C)C)C(C)C2)c(F)cc2c(=O)c(C(=O)O)cn(C3CC3)c12` (configuration not stated) gave a melting point of 221 °C.
For `CCCCCCCCCCCCCCC[C@@H](O)[C@@H](NCc1ccccc1)C(=O)O`, the melting point came to 132 °C.
For `OC1(C#Cc2ccc(-c3ccc(F)cc3)cc2)CN2CCC1CC2` (configuration not stated), the melting point was in the range of 232 to 233 °C.
In the case of `CC(C)(C)NSc1cnccn1`, the melting point was in the range of 44 to 52 °C.
Then `CC(C)(C(=O)O)c1ccc(OCCNC(=O)C2Cc3ccccc3N2S(=O)(=O)c2ccc(-c3cc(C(F)(F)F)ccc3Cl)cc2)cc1` (configuration not stated), with 92 to 100 °C; and `CCC(CC1(c2ccc(Cl)c(Cl)c2)CCC1)=NO`, with 106 to 110 °C.
`COc1ccc(N2CCN(c3c(C)c(C)c4c(c3C)CC3(CCCC3)O4)CC2)cc1` returned a melting point of 137 to 139 °C.
Turning to `CCCOc1ccc(OC)cc1C1=NC(=O)C2=NC=NC2=N1`, the melting point is 233 to 234 °C.
`CC(C)(C)OC(=O)N1CCCC(Nc2cc(Cl)n[nH]c2=O)C1` (configuration not stated) showed a melting point of 195 to 196 °C.
Regarding `Cc1cc(C)c(Cc2ccc(C(C)C)cc2)c(OCC(=O)O)c1`, the melting point was 104 to 105 °C.
Consider `Oc1ccc(Nc2nc(NCc3ccco3)nc(-n3ccnc3)n2)cc1`, for which the melting point is 244 to 246 °C.
As to `CCn1c(=O)[nH]c(=O)c2nc(-c3ccc(/C=C/C(=O)O)cc3)[nH]c21`, the melting point was above 300 °C.
The compound `COC(=O)c1cccc(C)c1NS(=O)(=O)c1nc2nc(C)cc(C)n2n1` registered a melting point of 181 to 182 °C.
As for `CCc1nn2c(c1Oc1cc(Cl)cc(Cl)c1)C(=O)NCC2`, the melting point lay within 220 to 223 °C.
